Data reported in patent publication US10799494B2, “Combination of respiratory electron transport chain inhibitors with a cytochrome bd inhibitor” (priority 2015, dated 2020).
Where “and” joins values, the source holds several entries; their conditions need not be identical. Identical values can stand only once.

Legend:
[1] = molecular target: M. tuberculosis cytochrome bd-I (Mycobacterium tuberculosis, UniProt L7N662); format: biochemical
[2] = system: Mycobacterium tuberculosis (Mtb) H37Rv; experiment: MGIT growth inhibition assay, time to positivity; format: cell-based
M. tuberculosis H37Rv = M. tuberculosis H37Rv growth inhibition screen at fixed 5 μM; format: cell-based, Mycobacterium tuberculosis; settings: 5 μM compound; for activity at 5 µM: Mycobacterium tuberculosis, H37RV, aerobic, read-out: Growth of M. tuberculosis H37Rv (aerobic) at 5 μM of [compounds]
[3] = molecular target: recombinant M. tuberculosis bd-I (Mycobacterium tuberculosis, UniProt L7N662); experiment: Steady-state kinetics of quinol:Mtb bd-I activity with artificial quinol substrates; settings: for specific catalytic activity: FIG. 1, measured at 283 nm
Sequence of recombinant M. tuberculosis bd-I (L7N662 1-485): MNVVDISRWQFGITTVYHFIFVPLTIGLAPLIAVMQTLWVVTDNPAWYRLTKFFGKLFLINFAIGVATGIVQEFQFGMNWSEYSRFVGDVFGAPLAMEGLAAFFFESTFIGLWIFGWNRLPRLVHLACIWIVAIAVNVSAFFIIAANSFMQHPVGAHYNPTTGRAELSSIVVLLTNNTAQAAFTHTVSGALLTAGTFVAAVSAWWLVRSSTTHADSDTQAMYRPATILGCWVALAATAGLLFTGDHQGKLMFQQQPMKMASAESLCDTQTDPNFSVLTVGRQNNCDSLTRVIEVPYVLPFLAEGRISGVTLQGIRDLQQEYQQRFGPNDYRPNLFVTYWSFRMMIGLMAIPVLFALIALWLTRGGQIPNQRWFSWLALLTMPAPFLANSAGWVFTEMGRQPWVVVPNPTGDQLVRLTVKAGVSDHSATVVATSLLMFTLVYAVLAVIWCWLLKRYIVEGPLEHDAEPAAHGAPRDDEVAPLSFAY

[4] = Table 8, WDH-2G-6 3 μM, MTC420 5.5 μM, lansoprazole sulphide 26.5 μM, TMC207 250 nM, media control 10
[5] = Table 6, compounds at 5x IC90, drug free control 11, followed to 74 days

Sequence of M. tuberculosis cytochrome bd-I (L7N662 1-485): as above

With `Cc1c(-c2ccc(-c3ccccc3C(F)(F)F)cc2)[nH]c2ccccc2c1=O` [SL-2-36, 3-Methyl-2-(2′-(trifluoromethyl)-[1,1′-biphenyl]-4-yl)quinolin-4(1H)-one] the “inhibition @ 1 uM (% of cntls)” value [1] was 90.5 % of cntls.

In the case of `COc1ccc2[nH]c(-c3ccc(Cc4ccc(OC(F)(F)F)cc4)cc3)c(C)c(=O)c2c1` [SCR-05-03, 6-Methoxy-3-methyl-2-(4-(4-(trifluoromethoxy)benzyl)phenyl)quinolin-4(1H)-one], the “inhibition @ 1 uM (% of cntls)” value [1] is reported as 60.9 % of cntls.

In the case of `CC(C)c1c(-c2cnn(Cc3ccc(OC(F)(F)F)cc3)c2)[nH]c2ccccc2c1=O` [WDH-2G-6, 3-Isopropyl-2-(1-(4-(trifluoromethoxy)benzyl)-1H-pyrazol-4-yl)quinolin-4(1H)-one], the Time to Positivity [2, 4] is reported as 10 days and the “inhibition @ 1 uM (% of cntls)” value [1] is reported as 81.6 % of cntls.

`Cc1c(-c2ccc(Oc3ccc(OC(F)(F)F)cc3)nc2)[nH]c2ccccc2c1=O` [CK-3-22, 3-Methyl-2-(6-(4-(trifluoromethoxy)phenoxy)pyridin-3-yl)quinolin-4(1H)-one] was tested, and the “inhibition @ 1 uM (% of cntls)” value [1] was 62.8 % of cntls.

Compound `O=c1cc(-c2cnn(Cc3ccc(OC(F)(F)F)cc3)c2)[nH]c2ccccc12` [WDH-1W-5, 2-(1-(4-(Trifluoromethoxy)benzyl)-1H-pyrazol-4-yl)quinolin-4(1H)-one] has an activity at 5 µM (M. tuberculosis H37Rv) of 61.3%.

`Cc1c(-c2ccc(N3CCCCC3)cc2)[nH]c2cc(F)cc(F)c2c1=O` [MTD-403, 5,7-Difluoro-3-methyl-2-(4-(piperidin-1-yl)phenyl)quinolin-4(1H)-one] was tested, and the “Growth of M. tuberculosis H37Rv (aerobic) at 5 μM of [compounds]” value (M. tuberculosis H37Rv) was “No growth”.

For `Cc1c(-c2ccc(-c3ccccc3F)cc2)[nH]c2ccccc2c1=O` [SL-3-3, 2-(2′-Fluoro-[1,1′-biphenyl]-4-yl)-3-methylquinolin-4(1H)-one], the “inhibition @ 1 uM (% of cntls)” value [1] was 62.2 % of cntls.

With `O=c1cc(-c2ccc(Cc3ccc(OC(F)(F)F)cc3)cc2)[nH]c2cc(O)c(F)cc12` [CK-3-68, 6-Fluoro-7-hydroxy-2-(4-(4-(trifluoromethoxy)benzyl)phenyl)quinolin-4(1H)-one] the “inhibition @ 1 uM (% of cntls)” value [1] was 71.7 % of cntls.

`Cc1c(OCC(F)(F)F)ccnc1CSc1nc2ccccc2[nH]1` [Lansoprazole sulphide, lansoprazole sulfide] was tested, and the Time to Positivity [2, 4] was 13 days and the “Time to positivity (TtP)” value ([2]; lansoprazole sulfide 26.5 μM, CK-2-63 35 μM, drug-free control 10 days) was 13 days.

`Cc1c(-c2ccc(Oc3ccc(F)cc3)nc2)[nH]c2ccccc2c1=O` [CK-3-14, 2-(6-(4-Fluorophenoxy)pyridin-3-yl)-3-methylquinolin-4(1H)-one] gave an activity at 5 µM (M. tuberculosis H37Rv) of 100%.

For `Cc1c(-c2ccc(-c3ccc(C(F)(F)F)nc3)nc2)[nH]c2ccccc2c1=O` [PG-128, 3-Methyl-2-(6′-(trifluoromethyl)-[2,3′-bipyridin]-5-yl)quinolin-4(1H)-one], the activity at 5 µM (M. tuberculosis H37Rv) was 95.6%.

`Cc1c(-c2ccc(N3CCCCC3)cc2)[nH]c2ccccc2c1=O` [RKA-307, 3-Methyl-2-(4-(piperidin-1-yl)phenyl)quinolin-4(1H)-one] was tested, and the activity at 5 µM (M. tuberculosis H37Rv) was 1.8%.

`CCOC(=O)c1c(-c2ccc(Cc3ccc(OC(F)(F)F)cc3)cc2)[nH]c2ccccc2c1=O` [GN-1710, Ethyl 4-oxo-2-(4-(4-(trifluoromethoxy)benzyl)phenyI)-1,4-dihydroquinoline-3-carboxylate] was tested, and the activity at 5 µM (M. tuberculosis H37Rv) was 100%.

In the case of `O=c1c(-c2ccc(Oc3ccc(OC(F)(F)F)cc3)cc2)c(CO)[nH]c2ccccc12` [PG208, 2-(Hydroxymethyl)-3-(4-(4-(trifluoromethoxy)phenoxy)phenyl)quinolin-4(1H)-one], the “inhibition @ 1 uM (% of cntls)” value [1] is reported as 66.7 % of cntls.

In the case of `COc1ccc2c(=O)c(C)c(-c3ccc(N4CCCCC4)cc3)[nH]c2c1` [RKA-310, 7-methoxy-3-methyl-2-(4-(piperidin-1-yl)phenyl)quinolin-4(1H)-one], the “Growth of M. tuberculosis H37Rv (aerobic) at 5 μM of [compounds]” value (M. tuberculosis H37Rv) is reported as “No growth”.

`COc1cccc2[nH]c(-c3ccc(-c4ccc(OC(F)(F)F)cc4)nc3)c(C)c(=O)c12` [SCR-04-04, 5-Methoxy-3-methyl-2-(6-(4-(trifluoromethoxy)phenyl)pyridin-3-yl)quinolin-4(1H)-one] was tested, and the “inhibition @ 1 uM (% of cntls)” value [1] was 65.4 % of cntls.

In the case of `Cc1c(-c2ccc(Cc3cccc(OCCN4CCOCC4)c3)cc2)[nH]c2ccccc2c1=O` [PG201, 3-Methyl-2-(4-(3-(2-morpholinoethoxy)benzyl)phenyl)quinolin-4(1H)-one], the “inhibition @ 1 uM (% of cntls)” value [1] is reported as 68.7 % of cntls.

`CO[C@H]1/C=C/O[C@@]2(C)Oc3c(C)c(O)c4c(O)c(c(/C=N/N5CCN(C)CC5)c(O)c4c3C2=O)NC(=O)/C(C)=C\C=C\[C@H](C)[C@H](O)[C@@H](C)[C@@H](O)[C@@H](C)[C@H](OC(C)=O)[C@@H]1C` [Rifampicin] was tested, and the “Time to Positivity” value [2, 5] was “No effect at 74 days”.

In the case of `Cc1c(-c2cccc(Cc3ccc(OC(F)(F)F)cc3)c2)[nH]c2ccccc2c1=O` [CK-2-58, 3-Methyl-2-(3-(4-(trifluoromethoxy)benzyl)phenyl)quinolin-4(1H)-one], the “inhibition @ 1 uM (% of cntls)” value [1] is reported as 82.3 % of cntls.

For `Cc1c(-c2ccc(-c3ccc(C(F)(F)F)cc3)nc2)[nH]c2ccccc2c1=O` [RKA 142, 3-Methyl-2-(6-(4-(trifluoromethyl)phenyl)pyridin-3-yl)quinolin-4(1H)-one], the “inhibition @ 1 uM (% of cntls)” value [1] was >50 % of cntls.

In the case of “3-Methyl-2-(1-(4-(trifluoromethoxy)phenethyl)-1H-pyrazol-4-yl)quinolin-4(1H)-one [WDH-2R-4]”, the “inhibition @ 1 uM (% of cntls)” value [1] is reported as 56.2 % of cntls and the IC50 ([1]; additional compounds, […]) is reported as 380 nM.

For `CCOC(=O)c1c(-c2ccc(-c3ccc(Cl)cc3)cc2)[nH]c2ccccc2c1=O` [WDH-1V-9, Ethyl 2-(4′-chloro-[1,1′-biphenyl]-4-yl)-4-oxo-1,4-dihydroquinoline-3-carboxylate], the “inhibition @ 1 uM (% of cntls)” value [1] was 87.5 % of cntls.

`COc1c(O)c(C)c(C/C=C(\C)CCC=C(C)C)c(O)c1OC` [Compound Q2H2, ubiquinol-2] was tested, and the “specific catalytic activity ± SEM” value [3] was 8.7 ± 2.5 µmol/min/mg and the specific catalytic activity [3] was 8.65 ± 2.5 µmol/min/mg.

With `COc1c(C)c(-c2ccc(Cc3ccccc3)cc2)nc2ccccc12` [CK-3-23, 2-(4-Benzylphenyl)-4-methoxy-3-methylquinoline] the activity at 5 µM (M. tuberculosis H37Rv) was 6.6%.

In the case of `CCOC(=O)c1c(-c2ccc(-c3ccc(OC(F)(F)F)cc3)cc2)[nH]c2ccccc2c1=O` [WDH-1V-10, Ethyl 4-oxo-2-(4′-(trifluoromethoxy)-[1,1′-biphenyl]-4-yl)-1,4-dihydroquinoline-3-carboxylate], the “inhibition @ 1 uM (% of cntls)” value [1] is reported as 79.4 % of cntls.

In the case of `Cc1c(-c2ccc(Cc3ccc(OC(F)(F)F)cc3)cc2)[nH]c2cc(O)ccc2c1=O` [SCR-45-01D, 7-Hydroxy-3-methyl-2-(4-(4-(trifluoromethoxy)benzyl)phenyl)quinolin-4(1H)-one], the “inhibition @ 1 uM (% of cntls)” value [1] is reported as 81.5 % of cntls.

In the case of `Cc1[nH]c2ccccc2c(=O)c1-c1ccc(Oc2ccc(OC(F)(F)F)cc2)cc1` [PG-203, 2-Methyl-3-(4-(4-(trifluoromethoxy)phenoxy)phenyl)quinolin-4(1H)-one], the activity at 5 µM (M. tuberculosis H37Rv) is reported as 100%.

In the case of `CCCCCCCCCCc1c(C)c(O)c(OC)c(OC)c1O` [dQH2, decylubiquinol], the “specific catalytic activity ± SEM” value [3] is reported as 9.0 ± 0.2 µmol/min/mg and 5.1 ± 0.3 µmol/min/mg and 6.2 ± 0.5 µmol/min/mg and the specific catalytic activity [3] is reported as 5.1 ± 0.29 µmol/min/mg.

With `CCOC(=O)c1c(-c2ccc(-c3ccc(Cl)cc3)cc2)[nH]c2ccccc2c1=O` [WDH-1U-10, Ethyl 2-(4′-chloro-[1,1′-biphenyl]-4-yl)-4-oxo-1,4-dihydroquinoline-3-carboxylate] the activity at 5 µM (M. tuberculosis H37Rv) was 82.2%.

With `Cc1ccc2nc(C)c(C(=O)NCc3ccc(Oc4ccc(F)cc4)cc3)n2c1` [AWE 402] the “Time to Positivity” value [2, 5] was 15 days and the Time to Positivity [2, 4] was 13 days.

For `Cc1c(-c2ccc(Oc3cccc(OCCN4CCOCC4)c3)cc2)[nH]c2ccccc2c1=O` [CK-4-15, 3-Methyl-2-(4-(3-(2-morpholinoethoxy)phenoxy)phenyl)quinolin-4(1H)-one], the “inhibition @ 1 uM (% of cntls)” value [1] was 66.6 % of cntls.

Work on `O=c1cc(-c2ccc(Cc3ccc(OC(F)(F)F)cc3)cc2)n(O)c2ccccc12` [RKA-73, 1-Hydroxy-2-(4-(4-(trifluoromethoxy)benzyl)phenyl)quinolin-4(1H)-one] yielded an activity at 5 µM (M. tuberculosis H37Rv) of 100%.

For `COc1ccc2c(=O)c(C)c(-c3ccc(Oc4ccc(OC(F)(F)F)cc4)nc3)[nH]c2c1` [RKA-259, 7-Methoxy-3-methyl-2-(6-(4-(trifluoromethoxy)phenoxy)pyridin-3-yl)quinolin-4(1H)-one], the activity at 5 µM (M. tuberculosis H37Rv) was 12.6%.

`COc1c(O)c(C)c(CC=C(C)C)c(O)c1OC` [Compound Q1H2, ubiquinol-1] gave a specific catalytic activity [3] of 5.26 ± 0.52 µmol/min/mg.

For `COc1ccc(Cc2ccc(-c3[nH]c4ccccc4c(=O)c3C)cc2)cc1` [CK-2-96, 2-(4-(4-Methoxybenzyl)phenyI)-3-methylquinolin-4(1H)-one], the “inhibition @ 1 uM (% of cntls)” value [1] was 85.7 % of cntls.

`Cc1c(-c2ccc(Cc3ccc(OC(F)(F)F)cc3)cc2)[nH]c2c(O)cccc2c1=O` [SCR-06-03D, 8-Hydroxy-3-methyl-2-(4-(4-(trifluoromethoxy)benzyl)phenyl)quinolin-4(1H)-one] was tested, and the “inhibition @ 1 uM (% of cntls)” value [1] was 73.1 % of cntls.

`NNC(=O)c1ccncc1` [INH, Isoniazid] was tested, and the “Time to Positivity” value [2, 5] was “No effect at 74 days” and the “Time to Positivity” value ([2]; Table 7 / FIG. 9, compounds at 5x IC90, 7.5×10^5 Mtb cells per tube, drug free control 8, followed to 80 days) was “No effect”.

Compound `Cc1c(-c2cnn(Cc3ccc(OC(F)(F)F)cc3)c2)[nH]c2ccccc2c1=O` [WDH-2A-9, 3-Methyl-2-(1-(4-(trifluoromethoxy)benzyl)-1H-pyrazol-4-yl)quinolin-4(1H)-one] has an activity at 5 µM (M. tuberculosis H37Rv) of 97.4%.

With `Cc1c(-c2ccc(OC3CCC(F)(F)CC3)cc2)[nH]c2ccccc2c1=O` [PG105, 2-(4-((4,4-Difluorocyclohexyl)oxy)phenyI)-3-methylquinolin-4(1H)-one] the “inhibition @ 1 uM (% of cntls)” value [1] was 71.5 % of cntls.
